Experimental data from patent US20060015954A1, “GPR54 knock-out mammals and screening methods using them” (Paradigm Therapeutics Limited, priority 2002, published 2006).
Like-named read-outs stand apart in the source and are kept apart here. Ends that are not written are not given here.

Experiments:
[1] = tested on: LH levels in the pituitary; experiment: Depletion of LH levels in the pituitary after stimulation by exogenous GnRH; assay type: in vivo, mice; settings: mutants, FIG. 15b
Method: (§1) Method: 25 ng of GnRH peptide was injected 4 times in 30 min intervals and the animals killed to collect blood and pituitary 30 min after last injection. All mice were killed between 11 am-1 pm.
(§2) Animal groups: 6 WT injected with just PBS (control), 6 WT injected with GnRH made in PBS and 6 HP injected with GnRH/PBS. All WT animals were staged and used at dioestrous (end of LH and FSH surge). All mice aged 2-4 months. This was repeated for LH and FSH measurements.
Measurement of the depletion of LH levels in the pituitary after stimulation by exogenous was measured. […] There were no deleterious effects of knocking out the gene in the mutants.

[2] = tested on: LH secretion from the pituitary; experiment: Serum LH assay after administration of exogenous GnRH; assay type: in vivo, mice
Method: (§3) 3) Administration of Exogenous GnRH and Effects on FSH and LH Secretion from the Pituitary
as §1, §2
Serum LH assay: There is a 5-fold increase in LH in serum of WT injected with GnRH compared to those injected with just PBS.

[3] = tested on: FSH secretion from the pituitary; experiment: Serum FSH assay after administration of exogenous GnRH; assay type: in vivo, mice
Method: as §3, §1, §2
Serum FSH assay: There is a 1.9-fold increase in FSH in serum of WT injected with GnRH compared to those injected with just PBS.

GPR54 = GPR54 (Homo sapiens, UniProt Q969F8); settings: Lee et al 1999; Ohtaki et al 2001; cited from earlier work
Chain of GPR54 (Q969F8 whole entry, species assumed): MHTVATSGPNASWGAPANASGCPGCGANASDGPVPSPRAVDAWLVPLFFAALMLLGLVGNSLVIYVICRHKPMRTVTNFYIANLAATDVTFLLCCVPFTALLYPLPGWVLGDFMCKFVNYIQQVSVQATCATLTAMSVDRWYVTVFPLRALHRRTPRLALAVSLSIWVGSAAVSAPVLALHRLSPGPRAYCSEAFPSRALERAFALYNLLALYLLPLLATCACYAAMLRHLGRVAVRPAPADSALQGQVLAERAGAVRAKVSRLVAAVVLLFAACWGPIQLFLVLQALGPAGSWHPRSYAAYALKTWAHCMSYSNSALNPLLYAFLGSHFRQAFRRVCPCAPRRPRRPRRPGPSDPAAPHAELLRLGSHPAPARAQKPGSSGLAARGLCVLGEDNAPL

[4] = tested on: B16-L16 melanoma cells transfected with the GPR54 receptor; settings: cited from earlier work
melanomas = settings: mice with melanomas injected in footpads, administration by perfusion; Ohtaki et al 2001; cited from earlier work
oxytocin secretion = settings: intravenous injection, female rat; Kotani et al 2001; cited from earlier work
[5] = tested on: ovaries (ovulation of mature oocytes); experiment: Exogenous gonadotrophins: ovulation in GPR54 mutant females; assay type: in vivo, mice; settings: 1000 iu PMS followed two days later by 1000 iu bHCG, n=6
Description: This is consistent with the hypothesis that GPR54 receptors and ligands are acting at the level of the pituitary hypothalamic axis and not the end-organs.

[6] = HP (GPR54 knockout) mice injected with GnRH against WT injected with just PBS

Which “LH levels in the pituitary after stimulation” value [1] does the source give for “GnRH: gonadotropin-releasing hormone peptide injected in PBS (QHWSYGLRPG; ends and bridges not checked; UniProt P01148 24-33, looked up)” here?
The value was “corresponding depletion of LH levels in the pituitary”.

What about the “increase in LH in serum” value [2, 6] of the same molecule?
Its value is 5 fold.

And the “increase in LH in serum” value ([2]; WT mice injected with GnRH compared to WT injected with just PBS)?
Its value is 5 fold.

And the “increase in FSH in serum” value [3, 6]?
The value was 1.7 fold.

And the “increase in FSH in serum” value ([3]; WT mice injected with GnRH (25 ng x 4 at 30 min intervals) compared to WT injected with just PBS)?
Its value is 1.9 fold.

With “galanin-like peptide: galanin-like peptide reported not to activate GPR54 (APAHRGRGGWTLNSAGYLLGPVLHLPQMGDQDGKRETALEILDLWKAIDGLPYSHPPQPS; Galanin-like peptide; UniProt Q9UBC7 25-84, looked up)” as the molecule, how does the “activation of GPR54” value (GPR54) read?
The value was “neither galanin nor galanin-like peptide activate GPR54”.

Which results are given for “metastin: 54 amino acid kisspeptin, product of the Kiss-1 gene, natural ligand of GPR54 (GTSLSPPPESSGSPQQPGLSAPHSRQIPAPQGAVLVQREKDLPNYNWNSFGLRF; ends and bridges not checked; UniProt Q15726 68-121, looked up)”?
cell motility ([4]; B16-L16 melanoma cells transfected with the GPR54 receptor): inhibits motility; cell motility ([4]; mock-transfected B16-L16 melanoma cells): not in mock-transfected cells; metastases (melanomas): significantly decreased metastases

For “kisspeptin-10: kisspeptin peptide injected intravenously in female rat (YNWNSFGLRF; ends and bridges not checked; UniProt Q15726 112-121, looked up)”, which oxytocin secretion (oxytocin secretion) is on record?
The oxytocin secretion was “stimulates oxytocin secretion”.

B1: bHCG: beta human chorionic gonadotrophins (protein, UniProt P0DN86 21-165, looked up)
Choriogonadotropin subunit …: SKEPLRPRCRPINATLAVEKEGCPVCITVNTTICAGYCPTMTRVLQGVLPALPQVVCNYRDVRFESIRLPGCPRGVNPVVSYAVALSCQCALCRRSTTDCGGPKDHPLTCDDPRFQDSSSSKAPPPSLPSPSRLPGPSDTPILPQ
For B1, which “mutant females with ovulation of mature oocytes” value [5] is on record?
The value was 50%.
